This note sets out measurements from patent US20230165806A1, “Topical Therapy of Skin Fibrosis and Melanoma” (Board of Regents, The University of Texas System, priority 2021, published 2023).

The term solubility denotes the dissolved amount per volume that the medium holds.

A short description of the data set: Solubility of NAVI in COA ionic liquid. In kind it is physicochemical. The text has this:
Skin melanoma remains one of the fastest-growing and the most common types of cancer in the United States and worldwide. Although primary melanoma can be removed by surgery if detected, advanced metastatic melanoma cannot be managed by surgery alone and thus an alternative and effective therapeutic approach is required. Direct local application of anti-cancer drugs may effectively treat topical cancerous skin lesions when surgery is not feasible. However, these therapies are severely limited due to the protective nature of the skin and the fact that current topical treatments may cause skin irritation, burning, light sensitivity, scaling, and inflammation. To treat early-stage melanoma, we have developed a topical formulation of Navitoclax (NAVI), a BCL-2 inhibitor that upregulates apoptosis, in association with an ionic liquid composed of Choline Octanoate (COA) at a molar ratio of 1:1. NAVI is a small hydrophobic molecule that solubilizes at 20% (w/v) when dissolved into 50% (DW v/v) COA. […] Therefore, COA-mediated topical delivery of NAVI enhanced transportation through the skin barrier and held the drug in the deeper skin layers for an extended period compared to the control.
The main challenges in treating fibrosis with chemotherapeutics are epidermal layer penetration, the appropriate concentration, and drug retention within the layer for a more extended period. […]

Bounds are passed on as bounds.

Regarding `CC1(C)CCC(c2ccc(Cl)cc2)=C(CN2CCN(c3ccc(C(=O)NS(=O)(=O)c4ccc(N[C@H](CCN5CCOCC5)CSc5ccccc5)c(S(=O)(=O)C(F)(F)F)c4)cc3)CC2)C1` [NAVI, Navitoclax], the solubility (choline octanoate (COA) ionic liquid, aqueous with cosolvent or surfactant or cyclodextrin, with COA, read-out: solubility of NAVI increased by COA) is no more than 150 µg/mL. The “solubility of NAVI” value (dissolved into 50% (DW v/v) COA) is given as 20 % (w/v).
